In patent US11040981B2, “Pyrrolotriazine compounds and methods of inhibiting TAM kinases” (Syros Pharmaceuticals, Inc., priority 2017, dated 2021):

How the values were obtained:
[1] = biological target: T1, MERTK (Homo sapiens, UniProt Q12866); test: TR-FRET kinase activity assay, MERTK; type: biochemical; settings: for IC50: TR-FRET activity assay, ATP at Km, 60 minutes, read-out: Mer IC50
T1 sequence (Q12866 21-999): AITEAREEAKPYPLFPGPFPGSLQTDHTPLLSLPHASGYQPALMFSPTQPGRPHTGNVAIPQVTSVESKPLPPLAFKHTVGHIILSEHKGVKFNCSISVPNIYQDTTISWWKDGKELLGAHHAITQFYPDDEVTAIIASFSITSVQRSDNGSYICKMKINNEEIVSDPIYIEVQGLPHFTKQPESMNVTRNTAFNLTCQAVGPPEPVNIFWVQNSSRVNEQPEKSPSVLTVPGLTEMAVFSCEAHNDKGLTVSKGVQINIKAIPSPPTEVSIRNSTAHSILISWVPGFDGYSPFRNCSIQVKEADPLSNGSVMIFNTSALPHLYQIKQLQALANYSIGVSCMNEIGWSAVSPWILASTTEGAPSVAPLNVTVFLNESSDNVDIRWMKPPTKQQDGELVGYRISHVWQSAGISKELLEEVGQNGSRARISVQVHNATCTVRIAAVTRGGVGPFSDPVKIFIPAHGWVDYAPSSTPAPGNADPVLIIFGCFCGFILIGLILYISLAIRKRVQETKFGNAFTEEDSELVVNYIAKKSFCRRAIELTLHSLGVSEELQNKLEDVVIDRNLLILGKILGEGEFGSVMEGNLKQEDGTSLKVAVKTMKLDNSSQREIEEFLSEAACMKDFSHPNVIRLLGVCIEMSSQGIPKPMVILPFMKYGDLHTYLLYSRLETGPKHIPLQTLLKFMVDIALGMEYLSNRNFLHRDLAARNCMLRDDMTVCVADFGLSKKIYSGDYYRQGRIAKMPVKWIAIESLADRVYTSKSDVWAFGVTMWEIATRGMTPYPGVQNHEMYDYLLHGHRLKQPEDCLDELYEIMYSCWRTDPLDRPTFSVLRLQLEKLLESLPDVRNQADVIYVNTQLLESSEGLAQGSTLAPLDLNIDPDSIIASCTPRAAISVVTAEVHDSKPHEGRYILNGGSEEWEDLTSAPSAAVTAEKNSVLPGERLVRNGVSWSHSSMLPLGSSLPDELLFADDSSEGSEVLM
In short: (§1)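 Enzyme, fluorescent peptide substrate and compound were mixed, and the reaction was started with ATP at each kinase's Km, in 50 mM HEPES pH 7.5, 10 mM MgCl2, 1 mM EGTA, 0.01% Brij 35, 1 mM DTT at RT. After 60 minutes EDTA quench, Eu-labelled phospho-specific antibody was added for 30 minutes, and IC50 was derived from TR-FRET signal loss.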

[2] = biological target: T2, FLT3 (Homo sapiens, UniProt P36888); test: TR-FRET kinase activity assay, FLT3; type: biochemical; settings: ATP at Km, 60 minutes
T2 sequence (P36888 27-993): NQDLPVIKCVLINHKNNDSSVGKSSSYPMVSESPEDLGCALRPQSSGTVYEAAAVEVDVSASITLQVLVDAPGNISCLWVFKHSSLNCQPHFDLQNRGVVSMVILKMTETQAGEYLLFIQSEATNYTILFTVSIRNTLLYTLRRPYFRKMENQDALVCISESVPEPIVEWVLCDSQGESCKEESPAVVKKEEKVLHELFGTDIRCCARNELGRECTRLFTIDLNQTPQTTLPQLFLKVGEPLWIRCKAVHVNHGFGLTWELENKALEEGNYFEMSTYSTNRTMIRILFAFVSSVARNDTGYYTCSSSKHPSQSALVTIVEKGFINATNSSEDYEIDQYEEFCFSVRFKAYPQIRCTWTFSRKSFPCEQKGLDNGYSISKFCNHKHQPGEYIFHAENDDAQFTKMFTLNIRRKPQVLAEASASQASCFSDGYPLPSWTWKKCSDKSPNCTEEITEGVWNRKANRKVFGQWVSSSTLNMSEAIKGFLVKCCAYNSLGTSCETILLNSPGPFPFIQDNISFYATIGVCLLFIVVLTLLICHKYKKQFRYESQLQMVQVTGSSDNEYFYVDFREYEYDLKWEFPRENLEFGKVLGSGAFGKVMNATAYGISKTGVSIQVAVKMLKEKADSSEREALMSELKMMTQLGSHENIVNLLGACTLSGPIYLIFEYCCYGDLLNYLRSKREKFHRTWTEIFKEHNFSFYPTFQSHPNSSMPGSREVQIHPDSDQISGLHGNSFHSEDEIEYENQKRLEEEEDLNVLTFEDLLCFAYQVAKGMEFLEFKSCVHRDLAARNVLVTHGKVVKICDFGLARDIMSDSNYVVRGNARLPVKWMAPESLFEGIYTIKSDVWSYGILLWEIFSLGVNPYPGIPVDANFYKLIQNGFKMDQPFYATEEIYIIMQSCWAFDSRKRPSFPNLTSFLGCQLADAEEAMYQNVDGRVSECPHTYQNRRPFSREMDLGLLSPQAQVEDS
In short: as §1

[3] = ratio of Mer to FLT3: FLT3 IC50/Mer IC50
[4] = ratio calculated as FLT3 IC50/Mer IC50

| Structure (SMILES) | IC50 [1] | FLT3/Mer ratio (FLT3 IC50/Mer IC50) [1, 3] | IC50 [2] | FLT3/Mer ratio (FLT3 IC50/Mer IC50) [1, 4] |
| --- | --- | --- | --- | --- |
| COCC(C)Nc1ncc2c(-c3ccc(C(C)N4CCOCC4)cc3)cc(C3CCC(O)CC3)n2n1 (stereo not drawn) [Compound 181] | ≤ 100 nM | ++ (“++” represents a ratio of between 10 and 100) | ≤ 100 nM |  |
| COC[C@H](C)Nc1ncc2c(-c3ccc(C4(C(=O)N5CCOCC5)CC4)cc3)cc([C@H]3CC[C@H](O)CC3)n2n1 [Compound 171] | ≤ 100 nM | ++ (“++” represents a ratio of between 10 and 100) | ≤ 100 nM |  |
| COC[C@H](C)Nc1ncc2c(-c3ccnc(N4CCC(C)(O)CC4)c3)cc([C@H]3CC[C@H](O)CC3)n2n1 [Compound 605] | ≤ 100 nM |  | 100 to 1000 nM | +++ (“+++” represents a ratio of >100) |
| CC[C@]1(O)CC[C@@H](c2cc(-c3cnn(C4COC4)c3)c3cnc(N[C@@H](C)COC)nn32)CC1 [Compound 616] | ≤ 100 nM |  | 100 to 1000 nM | +++ (“+++” represents a ratio of >100) |
| COC[C@H](C)Nc1ncc2c(-c3cnn(C(C)(C)C(=O)N4CCC(C)(O)C4)c3)cc([C@H]3CC[C@H](O)CC3)n2n1 (stereo partly drawn) [Compound 620] | ≤ 100 nM |  | 1000 to 10000 nM | +++ (“+++” represents a ratio of >100) |
| COCC(C)Nc1ncc2c(-c3ccc(C(C)(C)c4nnc(C)o4)s3)cc(C3CCC(O)CC3)n2n1 (stereo not drawn) [Compound 611] | ≤ 100 nM |  | 100 to 1000 nM | +++ (“+++” represents a ratio of >100) |
| COC[C@H](C)Nc1ncc2c(-c3ccc(C#N)c(F)c3)cc([C@H]3CC[C@H](O)CC3)n2n1 [Compound 169] | ≤ 100 nM | +++ (“+++” represents a ratio of >100) | 1000 to 10000 nM |  |
| COC[C@H](C)Nc1ncc2c(-c3ccc(C(=O)N4CCN(C)CC4)cc3)cc([C@H]3CC[C@H](O)CC3)n2n1 [Compound 144] | ≤ 100 nM | +++ (“+++” represents a ratio of >100) | 100 to 1000 nM |  |
| [2H]C([2H])([2H])OCC(C)Nc1ncc2c(-c3cnn(C4COC4)c3)cc(C3CCC(O)CC3)n2n1 (stereo not drawn) [Compound 630] | ≤ 100 nM |  | 100 to 1000 nM | +++ (“+++” represents a ratio of >100) |
| COC[C@H](C)Nc1ncc2c(-c3cnn(C(C)(C)C(=O)N4CCCC4)c3)cc([C@H]3CC[C@H](O)CC3)n2n1 [Compound 612] | ≤ 100 nM |  | 100 to 1000 nM | +++ (“+++” represents a ratio of >100) |
| COC[C@H](C)Nc1ncc2c([C@H]3CC[C@H](C(=O)N4CCN(C)CC4)CC3)cc([C@H]3CC[C@H](O)CC3)n2n1 [Compound 606] | ≤ 100 nM |  | 1000 to 10000 nM | +++ (“+++” represents a ratio of >100) |
| COC[C@H](C)Nc1ncc2c(-c3cnn(C)c3)cc([C@H]3CC[C@H](O)CC3)n2n1 [Compound 152] | ≤ 100 nM | +++ (“+++” represents a ratio of >100) | 100 to 1000 nM |  |
| COC[C@H](C)Nc1ncc2c(-c3ccc(CN4CCN(c5nccc(C)n5)CC4)cc3)cc([C@H]3CC[C@H](O)CC3)n2n1 [Compound 154, (trans)-4-(2-(((S)-1-methoxypropan-2-yl)amino)-5-(4-((4-(4-methylpyrimidin-2-yl)piperazin-1-yl)methyl)phenyl)pyrrolo[2,1-f][1,2,4]triazin-7-yl)cyclohexanol] | ≤ 100 nM | +++ (“+++” represents a ratio of >100) | 100 to 1000 nM |  |
| COC[C@H](C)Nc1ncc2c(-c3cnn(C(C)(C)C(=O)N4CCCC(C)(O)C4)c3)cc([C@H]3CC[C@H](O)CC3)n2n1 (stereo partly drawn) [Compound 621] | ≤ 100 nM |  | 100 to 1000 nM | +++ (“+++” represents a ratio of >100) |
| COC[C@H](C)Nc1ncc2c(-c3cnn(C(C)(C)c4nnco4)c3)cc([C@H]3CC[C@H](O)CC3)n2n1 [Compound 604] | ≤ 100 nM |  | 1000 to 10000 nM | +++ (“+++” represents a ratio of >100) |
| COC[C@H](C)Nc1ncc2c(-c3ccnc(C)c3)cc([C@H]3CC[C@@H](O)CC3)n2n1 [Compound 183] | ≤ 100 nM | +++ (“+++” represents a ratio of >100) | 1000 to 10000 nM |  |
| COCC(C)Nc1ncc2c(-c3ccc(C(C)N4CCOCC4)cc3)cc(C3CCC(O)CC3)n2n1 (mixture of isomers) [Compound 180] | ≤ 100 nM | ++ (“++” represents a ratio of between 10 and 100) | 100 to 1000 nM |  |
| COC[C@H](C)Nc1ncc2c(-c3cnn(C4COC4)c3)cc([C@H]3CC[C@H](O)C(F)(F)C3)n2n1 [Compound 614] | ≤ 100 nM |  | 100 to 1000 nM | +++ (“+++” represents a ratio of >100) |
| COC[C@H](C)Nc1ncc2c(-c3ccc(C4(C(=O)O)CC4)cc3)cc([C@H]3CC[C@H](O)CC3)n2n1 [Compound 173] | ≤ 100 nM | +++ (“+++” represents a ratio of >100) | 100 to 1000 nM |  |
| COCC(C)Nc1ncc2c(-c3ccc(C(C)N4CCCC4)cc3)cc(C3CCC(O)CC3)n2n1 (stereo not drawn) [Compound 164] | ≤ 100 nM | ++ (“++” represents a ratio of between 10 and 100) | ≤ 100 nM |  |
| COC[C@H](C)Nc1ncc2c(-c3cnn(C(C)(C)c4nnc(C(F)(F)F)o4)c3)cc([C@H]3CC[C@H](O)CC3)n2n1 [Compound 603] | ≤ 100 nM |  | 1000 to 10000 nM | +++ (“+++” represents a ratio of >100) |
| COC[C@H](C)Nc1ncc2c(-c3cnn(C(C)(C)C(=O)N4CC(C)(O)C4)c3)cc([C@H]3CC[C@H](O)CC3)n2n1 [Compound 622] | ≤ 100 nM |  | 1000 to 10000 nM | +++ (“+++” represents a ratio of >100) |
